Measurements taken from US20240166612A1, “ARYLTHIOETHER ACETAMIDE AND RELATED COMPOUNDS AND THEIR USE IN TREATING MEDICAL CONDITIONS” (X-Biotix Therapeutics, Inc., priority 2021, published 2024).
≈ marks a conversion by molar mass, not a printed value.

Key:
[1] = molecular target: T1, recombinant LpxA enzyme (P. aeruginosa) (Pseudomonas aeruginosa, UniProt Q9X6P4); assay: LpxA in vitro substrate acylation assay with RapidFire MS analysis (P. aeruginosa); type: biochemical; details: P. aeruginosa enzyme 0.5 nM, PaACP-C10, 30 min
T1 sequence (Q9X6P4 1-258): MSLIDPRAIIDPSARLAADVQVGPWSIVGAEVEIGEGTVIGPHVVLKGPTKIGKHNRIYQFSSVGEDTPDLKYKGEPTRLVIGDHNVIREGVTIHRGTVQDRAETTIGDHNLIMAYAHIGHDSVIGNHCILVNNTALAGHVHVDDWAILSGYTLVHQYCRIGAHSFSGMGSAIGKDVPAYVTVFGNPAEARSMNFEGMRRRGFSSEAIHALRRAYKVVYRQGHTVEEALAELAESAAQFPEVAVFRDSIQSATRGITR
Experimental: Exemplary compounds from the above Examples were tested for ability to inhibit LpxA activity using an in vitro substrate acylation assay with RapidFire™ MS analysis. Assay procedures and results are described below.
Reactions were carried out in a final volume of 30 μL with 25 mM HEPES (pH 7.3), 150 mM NaCl, 2 mM DTT, 0.01% BSA, 5 μM UDP-GlcNac, recombinant LpxA enzyme (0.5 nM P. aeruginosa or 1.0 nM E. coli, both produced at Evotec), 0.5 μM acyl-transfer reagent (decanoyl P. aeruginosa acyl-carrier protein [PaACP-C10] or myristoyl E. coli acyl-carrier protein [EcACP-C1-4], both produced at Evotec), and 1% DMSO containing test compound. After 30 min incubation at room temperature, reactions were stopped by addition of 30 μL of 10% TCA in water.
Samples were centrifuged (4350 rpm, 4° C., 5 min), and then subjected to RapidFire™ MS analysis on an Agilent RapidFire 300 coupled to an Agilent 6460 triple-quadrupole mass spectrometer. Analytes were retained on a C4 (type A) cartridge using the following solvents and flow rates: • Pump 1—H2O with 5 mM NH4OAc at 2.0 mL/min, • Pump 2—MeOH/H2O (90/10) at 1.5 mL/min, • Pump 3—MeOH/H2O (90/10) at 0.5 mL/min, and • Pump 4—ACN (organic)/H2O (aqueous). Substrate and product of the reaction were detected in negative mode ESI-MS/MS by MRM (multiple reaction monitoring) of transitions 606.0/385.0 (UDP-GlcNAc substrate) and 776.2/385.0 (UDP-3-O—(R-3-hydroxydecanoyl)-GlcNAc product, for P. aeruginosa LpxA assay) or 832.2/385.0 (UDP-3-O—(R-3-hydroxymyristoyl)-GlcNAc product, for E. coli LpxA assay).
For IC50 determinations, peak areas of the substrate and product were compared to compute the proportion of product formed by the LpxA enzyme at each compound concentration.

[2] = system: Wild-type P. aeruginosa PAO1; assay: Broth microdilution MIC, wild-type P. aeruginosa PAO1; type: cell-based; details: Pseudomonas aeruginosa; wild-type P. aeruginosa PAO1, 37° C., 18 h; read-out: PAO1 WT MIC
Experimental: (§1) Exemplary compounds from the above Examples were tested to determine their minimum inhibitory concentration (MIC) for exemplary strains of Escherichia and Pseudomonas bacteria using broth microdilution methods. Assay procedures and results are described below.
(§2) Broth microdilution assays were conducted according to Clinical and Laboratory Standards Institute guidelines (CLSI, M07-A^11: Clinical and Laboratory Standards Institute. Methods for Dilution Antimicrobial Susceptibility Tests for Bacteria that Grow Aerobically; Approved Standard-11th Edition. Wayne, PA: CLSI, 2018). Briefly, bacterial suspensions were adjusted to a density equivalent to a 0.5 McFarland standard and diluted in sterile, cation-adjusted Mueller-Hinton broth (Beckton Dickinson) to yield a final inoculum between 2×10^5 and 8×10^5 colony-forming units (CFU)/mL. An inoculum volume of 98 μL was added to wells containing 2 μL of 2-fold serial dilutions of drug (prepared in DMSO). All inoculated microdilution trays were incubated in ambient air at 37° C. for 18 h. […] Performance of the assay was monitored by the use of laboratory quality-control strains (S. aureus ATCC 29213 and P. aeruginosa ATCC 27853) and levofloxacin, a compound with a defined MIC spectrum, in accordance with CLSI guidelines (CLSI, M100Ed29: Clinical and Laboratory Standards Institute. Performance Standards for Antimicrobial Susceptibility Testing, 29th Edition. Wayne, PA: CLSI, 2018).
(§3) Multiple enterobacteriaceae strains were tested, including both wild-type strains and multi-drug resistance pump deficient mutants. Specific strains tested included the following: • Wild-type P. aeruginosa PAO1, • P. aeruginosa PAO1 ΔmexABoprM—Disabled multi-drug efflux system Δ(MexAB-OprM), • P. aeruginosa PAO397—PAO1Δ(mexAB-oprM) Δ(mexCD-oprJ) Δ(mexEF-oprN) Δ(mexJK) Δ(mexXY) ΔopmH, • P. aeruginosa LESB58—Clinical isolate; colistin-resistant, isolated in the United Kingdom in 1988 from a patient with cystic fibrosis • E. coli JW0452-3 (BW25113 JacrA::kan)—Disabled multi-drug efflux system (AcrAB-TolC).
(§4) Experimental results are provided in Table 11, which provides MIC values for wild-type P. aeruginosa PAO1 (“PAO1 WT MIC”), P. aeruginosa PAO ΔmexABoprM (“PAO1 KO MIC”), P. aeruginosa PAO397 (“PAO397 KO MIC”), P. aeruginosa LESB58 (“LESB58”), and E. coli JW0452-3 (BW25113 JacrA::kan) (“E. coli KO MIC”).

[3] = system: P. aeruginosa LESB58; assay: Broth microdilution MIC, P. aeruginosa LESB58; type: cell-based; details: Pseudomonas aeruginosa; P. aeruginosa LESB58 clinical isolate, colistin-resistant, 37° C., 18 h
Experimental: as §1, §2, §3, §4

[4] = system: P. aeruginosa PAO1 ΔmexABoprM; assay: Broth microdilution MIC, P. aeruginosa PAO1 ΔmexABoprM; type: cell-based; details: Pseudomonas aeruginosa, PAO1, 18 h, read-out: PAO1 KO MIC
Experimental: as §1, §2, §3, §4

[5] = system: P. aeruginosa PAO397; assay: Broth microdilution MIC, P. aeruginosa PAO397; type: cell-based; details: Pseudomonas aeruginosa, PAO397, 18 h, read-out: PAO397 KO MIC
Experimental: as §1, §2, §3, §4

Row | Structure (SMILES) | IC50 [1] | MIC [2] | MIC [3] | MIC [4] | MIC [5]
1 | N#Cc1ccc(CN(CC(=O)N2CCOC[C@@H]2CN)C(=O)CSc2cc(F)cc(F)c2Cl)c(F)c1 [compound 106] | > 1 µM | > 64 µg/mL | > 64 µg/mL | – | –
2 | Nc1nnc(CN(Cc2ccc([N+](=O)[O-])cc2F)C(=O)COc2cc(F)cc(F)c2C2CC2)o1 [compound 86] | < 0.02 µM | 16 to 64 µg/mL (≈ 33.5 to 134 µM) | 1 to 16 µg/mL (≈ 2.09 to 33.5 µM) | – | –
3 | N#Cc1ccc(CN(Cc2nnc(N)s2)C(=O)CSc2ccccc2Cl)cc1 [Compound No. 69, N-[(5-Amino-1,3,4-thiadiazol-2-yl)methyl]-2-(2-chlorophenyl)sulfanyl-N-[(4-cyanophenyl)methyl]acetamide] | – | > 64 µg/mL | – | 1 to 16 µg/mL (≈ 2.33 to 37.2 µM) | 1 to 16 µg/mL (≈ 2.33 to 37.2 µM)
4 | N#Cc1ccc(CN(Cc2nnc(N)o2)C(=O)c2cc3cccc(Cl)c3s2)c(F)c1 [compound 97] | > 1 µM | > 64 µg/mL | > 64 µg/mL | – | –
5 | N#Cc1ccc(CN(C(=O)CSc2ccccc2Cl)C2(c3nnc(N)o3)CC2)c(F)c1 [compound 23] | 0.02 to 0.1 µM | > 64 µg/mL | – | – | 1 to 16 µg/mL (≈ 2.18 to 34.9 µM)
6 | [2H]C([2H])(Oc1cc(F)cc(F)c1C([2H])([2H])C([2H])([2H])[2H])C(=O)N(Cc1nnc(N)o1)Cc1ccc([N+](=O)[O-])cc1F [compound 78] | < 0.02 µM | 1 to 16 µg/mL (≈ 2.12 to 33.9 µM) | 1 to 16 µg/mL (≈ 2.12 to 33.9 µM) | – | –
7 | NCc1ccc(CN(Cc2nnc(N)o2)C(=O)CSc2ccccc2Cl)cc1 [Compound No. 61, N-[[4-(Aminomethyl)phenyl]methyl]-N-[(5-amino-1,3,4-oxadiazol-2-yl)methyl]-2-(2-chlorophenyl)sulfanyl-acetamide] | > 1 µM | > 64 µg/mL | – | – | 16 to 64 µg/mL (≈ 38.3 to 153 µM)
8 | N#Cc1ccc(CN(Cc2nnc(N)o2)C(=O)COc2cc(F)cc(F)c2Br)c(F)c1 [compound 96] | < 0.02 µM | 16 to 64 µg/mL (≈ 32.2 to 129 µM) | 1 to 16 µg/mL (≈ 2.02 to 32.2 µM) | – | –
9 | N#Cc1ccc(CN(Cc2nnc(N)o2)C(=O)COc2cccc(Cl)c2Cl)c(F)c1 [compound 34] | – | > 64 µg/mL | – | 16 to 64 µg/mL (≈ 35.5 to 142 µM) | < 1 µg/mL
10 | N#Cc1ccc(CN(Cc2nnc(N)o2)C(=O)CSc2ncccc2Cl)cn1 [compound 12] | – | > 64 µg/mL | – | 1 to 16 µg/mL (≈ 2.4 to 38.5 µM) | < 1 µg/mL
11 | Nc1nnc(CN(Cc2ccc(S(N)(=O)=O)cc2)C(=O)CSc2ccccc2Cl)o1 [compound 47] | – | > 64 µg/mL | – | 16 to 64 µg/mL (≈ 34.2 to 137 µM) | < 1 µg/mL
12 | CCc1c(F)cc(F)cc1OCC(=O)N(Cc1ccc([N+](=O)[O-])cc1)Cc1nnc(N)o1 [compound 95] | < 0.02 µM | 16 to 64 µg/mL (≈ 35.8 to 143 µM) | 1 to 16 µg/mL (≈ 2.24 to 35.8 µM) | – | –
13 | [2H]C([2H])(Oc1ccccc1C([2H])([2H])C([2H])([2H])[2H])C(=O)N(Cc1ccc(C#N)nc1)Cc1nnc(N)o1 [compound 88] | 0.02 to 0.1 µM | > 64 µg/mL | > 64 µg/mL | – | –
14 | CCc1c(F)cc(F)cc1OCC(=O)N(Cc1ccc2c(c1)CC(=O)N2)Cc1nnc(N)o1 [compound 83] | < 0.02 µM | > 64 µg/mL | 16 to 64 µg/mL (≈ 35 to 140 µM) | – | –
15 | N#Cc1ccc(CN(CC(=O)N[C@@H](CN)C(=O)O)C(=O)CSc2cc(F)cc(F)c2Cl)c(F)c1 [compound 107] | 0.1 to 1 µM | > 64 µg/mL | > 64 µg/mL | – | –
16 | N#Cc1ccc(CN(Cc2cn[nH]c2)C(=O)CSc2ccccc2Cl)cc1 [compound 50] | 0.1 to 1 µM | > 64 µg/mL | – | – | 1 to 16 µg/mL (≈ 2.52 to 40.3 µM)
17 | CCc1ccccc1OCC(=O)N(Cc1ccc(C#N)cc1)Cc1nnc(N)o1 [compound 32] | – | > 64 µg/mL | – | 1 to 16 µg/mL (≈ 2.55 to 40.9 µM) | < 1 µg/mL
18 | Nc1nnc(CN(Cc2ccc([N+](=O)[O-])cc2)C(=O)COc2cc(F)cc(F)c2C2CC2)o1 [compound 84] | < 0.02 µM | 16 to 64 µg/mL (≈ 34.8 to 139 µM) | 1 to 16 µg/mL (≈ 2.18 to 34.8 µM) | – | –
19 | Nc1nnc(CN(Cc2ccc([N+](=O)[O-])nc2)C(=O)COc2cc(F)cc(F)c2C2CC2)o1 [compound 87] | 0.02 to 0.1 µM | > 64 µg/mL | > 64 µg/mL | – | –
20 | [2H]C([2H])(Oc1ccccc1C([2H])([2H])C([2H])([2H])[2H])C(=O)N(Cc1nnc(N)o1)Cc1ccc([N+](=O)[O-])cc1F [compound 92] | 0.02 to 0.1 µM | > 64 µg/mL | 16 to 64 µg/mL (≈ 36.7 to 147 µM) | – | –
21 | Nc1nnc(CN(Cc2csc([N+](=O)[O-])c2)C(=O)COc2cc(F)cc(F)c2C2CC2)o1 [compound 89] | 0.02 to 0.1 µM | > 64 µg/mL | > 64 µg/mL | – | –
22 | Cc1cnc(CN(Cc2ccc(C#N)cc2)C(=O)CSc2ccccc2Cl)o1 [compound 72] | 0.1 to 1 µM | > 64 µg/mL | – | – | 1 to 16 µg/mL (≈ 2.43 to 38.8 µM)
23 | [2H]C([2H])(Oc1ccccc1C([2H])([2H])C([2H])([2H])[2H])C(=O)N(Cc1ccc([N+](=O)[O-])cc1)Cc1nnc(N)o1 [compound 93] | 0.02 to 0.1 µM | > 64 µg/mL | > 64 µg/mL | – | –
24 | CCc1cccc(OCC(=O)N(Cc2nnc(N)o2)Cc2ccc(C#N)cc2F)c1 [compound 110] | 0.1 to 1 µM | > 64 µg/mL | > 64 µg/mL | – | –
25 | N#Cc1ccc(CN(Cc2cc[nH]n2)C(=O)CSc2ccccc2Cl)cc1 [compound 49] | 0.1 to 1 µM | > 64 µg/mL | – | – | 1 to 16 µg/mL (≈ 2.52 to 40.3 µM)
26 | N#Cc1ccc(CN(Cc2nnc(O)o2)C(=O)CSc2cc(OCCN)ccc2Cl)c(F)c1 [compound 116] | > 1 µM | > 64 µg/mL | > 64 µg/mL | – | –
